These results are taken from patent publication US5932575A, “Cardiac diseases improving agents” (Kureha Chemical Industry Co., Ltd., priority 1997, dated 1999).

In one experiment the test system is rats with renal diseases. The experiment is described as follows: Hypotensive action in rats with experimental renal disease (tail cuff). Type of experiment: in vivo, rats (female Sprague-Dawley). Here is the method: The compounds of the present invention and a comparative compound, Dup 753, were orally administered by gavage to rats with renal diseases and hypotensive action was determined. Rats with experimental renal disease were prepared with conventional method by ligating branch of renal artery. That is, female Sprague-Dawley rats were anesthetized, left renal hilus was exposed and three of four second branches of renal artery were ligated remaining one branch. One week later, further right renal hilus including artery, vein and ureter was ligated to reduce renal function up to about 1/8 to those of normal animals. Rats were divided to make eight animals in one group, and 20 mg/kg of one test compound and water as a control were administered to each group. After two days, systolic blood pressure was determined with a blood pressure determination apparatus using tail cuff method (UR5000, Ueda Manufacturing Co., Ltd.).

A further experiment relates to angiotensin II receptor. The settings on record: cited from earlier work.
A further experiment addresses T1, type 2 (AT2) receptor (Bos taurus, UniProt G5E6F7).
T1 construct: Receptor: Derived from bovine cerebellum; from tissue; host or cells: bovine cerebellum
T1 sequence (G5E6F7 1-362): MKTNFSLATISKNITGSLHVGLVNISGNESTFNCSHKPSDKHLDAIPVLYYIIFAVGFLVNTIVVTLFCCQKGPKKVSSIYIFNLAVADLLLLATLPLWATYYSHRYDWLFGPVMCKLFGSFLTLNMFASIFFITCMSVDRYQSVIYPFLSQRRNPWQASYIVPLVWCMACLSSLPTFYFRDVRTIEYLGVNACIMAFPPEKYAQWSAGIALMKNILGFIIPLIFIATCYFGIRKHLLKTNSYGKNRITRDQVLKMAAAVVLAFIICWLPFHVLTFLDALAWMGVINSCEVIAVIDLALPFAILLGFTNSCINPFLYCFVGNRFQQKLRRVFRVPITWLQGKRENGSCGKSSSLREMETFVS
In words: Affinity to angiotensin II type 2 receptor (binding assay). The settings on record: 37° C., one hour. On the set-up: species or system bovine. How it is done: Practically, determination of total binding of each compound was carried out as follows. A mixture of 0.025 ml of a predetermined concentration of test compound prepared by dissolving in DMSO, dilution with a buffer attached to the drug discovery system to 2-fold solution, 0.025 ml of a tracer and 0.2 ml of a receptor to make total volume of 0.25 ml was incubated at room temperature for three hours for type 1 angiotensin II (AT1) receptor or at 37° C. for one hour for type 2 (AT2) receptor. The reaction mixture was filtered under suction with CF/C filter paper for AT1 and CF/B filter paper for AT2. The used filter paper having the combination of the tracer and the receptor was determined with a γ-well counter (ARC-500, Aloka). Non-specific binding was determined with a similar manner by adding a large excess amount of displacer. The specific binding of test compound at a predetermined concentration was obtained by subtracting non-specific binding from respective total binding. In AT1, and AT2, a predetermined concentrations of test compound and a control compound were used to give the inhibitory rate, IC50 value of 50% inhibition, or binding inhibitory % at 100 μM, for binding of a radioactive ligand (tracer) and the receptor.
Receptor: Derived from bovine cerebellum
Tracer: ^125 ITyr^4angiotensin II
Control compound: Angiotensin II (human)
(Displacer): Angiotensin II (human)

The term inhibition denotes how much of the control response was suppressed. Consider `CCCCc1nc(Cl)c(CO)n1Cc1ccc(-c2ccccc2-c2nnn[nH]2)cc1` [DuP753, 2-butyl-4-chloro-5-(hydroxymethyl)-1-[[2'-(1H-tetrazol-5-yl)biphenyl-4-yl]methyl]imidazole], for which the “Blood pressure (average systolic)” value in the experiment with rats with renal diseases (20 mg/kg oral gavage, after two days, control (water) 210) was determined as 130 mmHg. Besides, the “effect on blood pressure (in words)” value in the experiment on rats with renal diseases (20 mg/kg oral, compared with control group) is reported as “marked hypotension”. For the same compound, the “antagonistic action to angiotensin II receptor (in words)” value in the experiment with angiotensin II receptor is “potent antagonistic action to angiotensin II receptor”. The inhibition at 100 µM at type 2 (AT2) receptor amounted to 0%.
